These are literature values, as cited in patent US6967217B1, “Process and composition for enhancing the action of vitamin a on the cellular activity of an individual, and use of vitamin c” (Natura Cosmetico S.A., priority 1998, dated 2005).

In this data set the test system is wrinkles. The conditions noted are these: Retinol 0.034%; men and women with age between 22 and 34 years.

The structures appear in SMILES notation.

Turning to `CC1=C(/C=C/C(C)=C/C=C/C(C)=C/CO)C(C)(C)CCC1` [Retinol], the effect on wrinkles result is “reduce the amount and the deepness of wrinkles”.
